Where a SMILES comes first, the peptide text is derived from it. [ ]: non-standard residue; d: D form. Aoe = N[C@@H](CCCCCC(=O)[C@@H]1CO1)C(=O)O; dPip = O=C(O)[C@H]1CCCCN1

Results on three compounds are retold here after patent US5112944A, “Cyclic tetrapeptide and process for preparing the same” (Shionogi & Co., Ltd., priority 1989, dated 1992).

Test [1] concerns NIH3T3 cells transformed with sis oncogene. Put plainly: Detransformation activity (return of transformed cells to normal flat morphology). Format: cell-based. The method, then: (§1) The employed culture solution was prepared by adding 9.5 g of DALBECCO'S EAGLE MEM medium (made by NISSUI SEIYAKU CO., LTD.) and 20 ml of 7% sodium bicarbonate to 1 l of distilled water and then adding fetal bovine serum (made by Flow Laboratories, Inc., U.S.A.) to be 10% by volume at the final concentration.
(§2) To each well of a 12-well plastic dish made by Flow Laboratories, Inc., 2 ml of the above-mentioned culture solution, 2×10^4 cells/ml of NIH3T3 cells transformed with sis oncogene (provided by National Cancer Institute of the U.S.; Science, 218, 1131 (1982)) and each test compound (RF-1023-A or RF-1023-B) in each concentration (5 to 400 ng/ml) were added and cultured at 37° C. in 5% CO2 incubator. Twenty-four hours later the morphology of the cells was observed and detransformation activity (activity for inhibiting transformation of NIH3T3 cells transformed with the oncogene and returning to normal flat morphology of cells) was estimated. Two days after the incubation, cells subjected to the medium containing RF-1023-A were dispersed with 0.05% trypsin, and the cell number was measured by means of hemocytometer.

The test system is the same in test [2]. The test can be described thus: Cell number / cell proliferation of transformed cells (hemocytometer). Format: cell-based. Particulars: for Cell number: 2 days after the incubation; for Percentage of increase: 2 days, untreated = 100. The method, then:
as §1, §2

Where [3] appears, read: 24 hours, lowest concentration tested.

With `O=C1N[C@@H](Cc2ccccc2)C(=O)N2CCCC[C@@H]2C(=O)N[C@@H](CCCCCC(=O)[C@@H]2CO2)C(=O)N[C@H]1Cc1ccccc1` [RF-1023-A] (cyclo([Aoe]FF[dPip])), in test [1] (setting [3]), the “Concentration at which detransformation activity is shown” value (from here on “Concentration”) was 5 ng/mL. The Cell number in test [2] (5 ng/ml test compound) is 3.8 × 10^5; in test [2] (50 ng/ml test compound) it was 3.4 × 10^5; in test [2] (100 ng/ml test compound), 1.5 × 10^5; in test [2] (200 ng/ml test compound), 1.1 × 10^5; in test [2] (400 ng/ml test compound) it was 1.1 × 10^5. The Percentage of increase in test [2] (5 ng/ml test compound) is listed as 35%; in test [2] (50 ng/ml test compound) it was 29%; in test [2] (100 ng/ml test compound), 0%; in test [2] (200 ng/ml test compound) it was -6%; in test [2] (400 ng/ml test compound), -6%.
`O=C1N[C@@H](Cc2ccccc2)C(=O)N2CCC[C@@H]2C(=O)N[C@@H](CCCCCC(=O)[C@@H]2CO2)C(=O)N[C@H]1Cc1ccccc1` [RF-1023-B] (cyclo(FF[dP][Aoe])): the “Concentration” value in test [1] (setting [3]) is 5 ng/mL.
Turning to `CC(=O)NCCCCCCNC(C)=O` [hexamethylene bisacetamide, reference compound], the “Concentration” value in test [1] (same experiment system) amounted to 3e+06 ng/mL.
